Results taken from article PMC11240878, “Synthesis, enzyme inhibition assay, and molecular modeling study of novel pyrazolines linked to 4-methylsulfonylphenyl scaffold: antitumor activity and cell cycle analysis” (RSC Advances, 2024).

How the values were obtained:
Assay type in all cases: cell-based, human
HS 578T = assay: NCI single-dose GI%, breast; conditions: 10.0 μM in one dose
TK-10 = assay: NCI single-dose GI%, renal; conditions: TK-10, renal; 10.0 μM in one dose
RXF 393 = assay: NCI single-dose GI%, renal; conditions: RXF 393, renal; 10.0 μM in one dose
CCRF-CEM = assay: NCI single-dose GI%, leukemia; conditions: 10.0 μM in one dose

Cc1ccc(C2=NN(C(=O)c3ccc(S(C)(=O)=O)cc3)C(c3ccc(C)cc3)C2)cc1 (stereo not shown) [Compound 18g, (3,5-Bis(4-tolyl)-4,5-dihydro-1H-pyrazol-1-yl)(4-(methylsulfonyl)phenyl)methanone]
GI% (HS 578T): 15%

CS(=O)(=O)c1ccc(C(=O)N2N=C(c3ccccc3)CC2c2ccccc2O)cc1 (stereo not shown) [Compound 18h, (5-(2-Hydroxyphenyl)-3-phenyl-4,5-dihydro-1H-pyrazol-1-yl)(4-(methylsulfonyl)phenyl)methanone]
GI% (TK-10): 25% | GI% (RXF 393): 29% | GI% (CCRF-CEM): 41%
